Data as given in patent publication US7863446B2, “Heterocycles” (Orchid Research Laboratories Limited, priority 2006, dated 2011).

Legend:
IL-6 = experiment: In vitro measurement of IL-6 in human PBMC (LPS stimulated); type: cell-based
Outline: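 Human PBMC (0.5 million/well) pre-incubated with compound 15 min at 37 °C, then stimulated with E. coli LPS (1 μg/ml) for 18 h at 37 °C, 5% CO2. IL-6 in culture medium quantified by ELISA.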

DU-145 = experiment: Anti-cancer screen (MTT), DU-145; type: cell-based; details: Homo sapiens, DU-145, 48 hours
COX-2 = target: T1, COX-2 (Homo sapiens, UniProt P35354); experiment: Human whole blood assay (PGE-2 inhibition, COX-2); type: cell-based; details: LPS stimulated human whole blood, NA = No activity, read-out: % PGE-2 Inhibition in hWBA
T1 construct: Fresh blood was collected in tubes containing sodium heparin by vein puncture from healthy male volunteers; endogenous in cells; host or cells: human whole blood from healthy male volunteers, stimulated with LPS
T1 sequence (P35354 18-604): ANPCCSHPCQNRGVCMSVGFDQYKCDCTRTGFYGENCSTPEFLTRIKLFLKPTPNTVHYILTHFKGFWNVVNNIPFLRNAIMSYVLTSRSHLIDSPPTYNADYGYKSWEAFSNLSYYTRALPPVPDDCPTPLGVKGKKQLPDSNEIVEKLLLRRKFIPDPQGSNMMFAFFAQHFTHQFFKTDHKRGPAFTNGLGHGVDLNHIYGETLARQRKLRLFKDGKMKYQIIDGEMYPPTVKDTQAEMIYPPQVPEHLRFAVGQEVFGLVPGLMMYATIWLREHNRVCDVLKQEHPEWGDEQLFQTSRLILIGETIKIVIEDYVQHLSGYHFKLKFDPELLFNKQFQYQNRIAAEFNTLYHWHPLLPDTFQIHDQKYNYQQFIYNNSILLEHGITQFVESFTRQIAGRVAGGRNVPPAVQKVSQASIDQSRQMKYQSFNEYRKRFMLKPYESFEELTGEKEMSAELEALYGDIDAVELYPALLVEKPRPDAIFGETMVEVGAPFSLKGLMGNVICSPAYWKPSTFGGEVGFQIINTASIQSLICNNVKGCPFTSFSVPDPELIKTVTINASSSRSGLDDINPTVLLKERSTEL
Protocol: In Vitro Evaluation of Cyclooxygenase-2 (Cox-2) Inhibition Activity
The COX-2 inhibition activities of the compounds illustrated in the examples were determined by the following method.
Human whole blood provides a protein and cell rich milieu appropriate for the study of the biochemical efficacy of anti-inflammatory compounds such as selective COX-2 inhibitors. […] This correlates with the observation that COX-2 inhibitors have no effect on prostaglandin E2 (PGE2) production in normal blood. These inhibitors were active only after incubation of human blood with lipopolysaccharide (LPS), which induces COX-2 production in the blood.
Fresh blood was collected in tubes containing sodium heparin by vein puncture from healthy male volunteers. The subjects should have no apparent inflammatory conditions and should have not taken NSAIDs for at least 7 days prior to blood collection. Blood was preincubated with aspirin in vitro (12 μg/ml, at time zero) to inactivate COX-1 for 6 hours. Then test compounds (at various concentrations) or vehicle were added to blood, the blood was stimulated with LPS B:4 (10 μg/ml) and incubated for another 18 hours at 37° C. water bath. After which the blood was centrifuged, plasma was separated and stored at −80° C. (J. Pharmacol. Exp. Ther, 271, 1705, 1994; Proc. Natl. Acad. Sci. USA, 96, 7563, 1999). The plasma was assayed for PGE2 using Cayman ELISA kit as per the procedure outlined by the manufacturer (Cayman Chemicals, Ann Arbor, USA).

Animals (male wistar) = experiment: Ulcerogenic potential; type: in vivo; details: oral, 4 hours after administration
Protocol: In order to evaluate the compound's role on the ulcer formation, the animals were sacrificed and the stomach was taken out and flushed with 1% formalin. Animals (male wistar. 200 g) were fasted for 18 hours with free access to water and the test compounds were suspended in 0.5% Tween 80 and 0.25% CMC (carboxymethylcellulose) solution to make a uniform suspension. After 4 hours of oral administration of test compounds, all the animals were sacrificed by cervical dislocation. The stomach was dissected carefully and filled up with a sterile saline solution and embedded in 6% formalin solution. […] The test compound treated groups were compared with the vehicle treated groups. […]

GI50 (DU-145): 1.93 µM | inhibition at 0.25 µM (COX-2; 0.25 μM): 6.1% | inhibition at 1 µM (COX-2; 1 μM): 22.9% | inhibition at 10 µM (COX-2; 10 μM): 35.6%
Compound: CNS(=O)(=O)c1ccc(-c2c(Cl)nc(C(F)(F)F)nc2-c2ccc(S(C)(=O)=O)cc2)cc1 [Example 4, 4-{4-Chloro-6-[4-(methylsulfonyl)phenyl]-2-(trifluoromethyl)pyrimidin-5-yl}-N-methylbenzenesulfonamide]
inhibition at 1 µM (IL-6; 1 μM, read-out: IL-6 Inhibition (%) Conc. (1 μM)): 27.2% | inhibition at 10 µM (IL-6; 10 μM, read-out: IL-6 Inhibition (%) Conc. (10 μM)): 100% | Ulcer incidence at 5 mg/kg (Animals (male wistar)): Nil
